Assay results as given in patent US20210299150A1, “AP39 IMPACT ON MITOCHONDRIA, METABOLISM, GENE TRANSCRIPTION REGULATION, CARDIOTOXICITY PROTECTION AND CANCER TREATMENT” (priority 2020, published 2021).

Key:
[1] = test system: cleaved caspase 3 and PARP, phospho ERK1/2 and phospho p38; assay: Western blot of apoptotic markers and stress signaling in H9C2; assay type: cell-based, Rat; details: H9C2, AP39 with Dox vs Dox only
Description: AP39 treatment also ameliorated Dox toxicity in a model of Rat cardiomyoblast cell line, H9C2. […] There was a narrow window of protection, as 30 μM and 50 μm doses were not as strong as the 40 μM dose (FIGS. 5A and B) in conferring protection. […] Note that Dox caused an apoptotic phenotype in correlation with ROS levels (FIG. 5F, Dox lane). This in vitro AP39 protection is modest when compared to the in vivo scenario. This difference may be due to rapid clearance of toxic metabolites (for instance, higher lactate production, FIG. 10D) and better oxygen supply (AP39 stimulated OCR, FIG. 7C) in vivo and lack of such sophistication in vitro.

H9C2 cells = assay: Mitochondrial H2S levels (AzMAC) and morphology (mitotracker Red) in H9C2 cells; assay type: cell-based, Rat
Excerpt: Note that white arrow heads and yellow arrows compare and contrast no-H2S: fusion and H2S-presence: fission scenarios in the same image AP39 treatment lane.
Mitochondrial fission was correlated with H2S levels. To investigate the impact of Dox on mitochondrial biogenesis and mitochondrial H2S levels, H9C2 cells were used in combination with H2S sensitive dye AzMAC and mitotracker Red dye as reported previously^8. […] Further, H2S levels (yellow arrows) highly correlated with a dotted appearance of mitochondria, implying that H2S causes mitochondrial fission, which is a prerequisite for eliminating damaged mitochondria^49.

AMPK, Opa1 = assay: Western blot of AMPK activation and Opa1 isoforms; assay type: cell-based; details: after AP39 treatment
Excerpt: AP39 enhanced AMPK activation and produced shorter isoform of Opa1, i.e. no longer isoform of Opa1. Note AMPK substrate ACC phosphorylation
Mitochondrial energy efficiency is regulated through accumulation of the shorter form of Opa1 after AP39 treatment. […] Thus, AP39 treatment led to mitochondrial fission, better quality control through increased mitophagy (increased AMPK activation) and energetic efficiency (short form of Opa1), which were all needed to eliminate Dox damaged mitochondria and to halt the functional decline. Apart from its role in mitophagy and quality control, AMPK activation also induces transcription of nuclear encoded mitochondrial resident proteins.

[2] = Oxygen Consumption Rate (OCR); assay type: cell-based; details: AP39, not significantly different in the presence of Dox
Excerpt: AP39 enhanced AMPK activation (A and B) and produced shorter isoform of Opa1, i.e. no longer isoform of Opa1. Oxygen consumption rates (OCR) with different treatments. […] Note AMPK substrate ACC phosphorylation.
It is possible that AP39 relies mostly on increased energy efficiency rather than on improving OCR after Dox treatment.

[3] = 13C-glucose isotope tracing and GC-MS metabolite quantification; assay type: cell-based
Description: Stable isotope (13C glucose) tracer studies. Heatmap.
(§1) To this end, 13C-glucose flux/isotope tracing and quantified metabolites through GC-MS were examined at 16 hrs and 24 hrs after the treatments. Glucose, glutamine and lactate were also measured in supernatants at these time points. […] With the exception of glycolytic metabolites, the remaining metabolic pathways (poor labeling) were non-operational after Dox treatment (FIG. 10A).
When considered AP39-mediated activation of AMPK, H2S is selectively halting energy consuming anabolic pathways, such as protein synthesis (also, lipid, AMPK inhibits […], a rate limiting lipid synthesizing enzyme, FIGS. 7A and B), as observed before^41, thus leading to accumulation of amino acids and is enhancing TCA cycle through AMPK activation. The net result is better energy management with AP39/H2S treatment.

[4] = Glucose, glutamine and lactate in cell culture supernatants; assay type: cell-based
Description: Quantification of glutamine, glucose and lactate in the cell culture supernatants at 16 and 24 hrs. n=3; p<0.05 or 0.01 (2 symbols); * vs Cont; # vs Dox at 16 hrs; and $ vs Cont; ^ vs Dox at 24 hrs.
as §1
However, AP39 treatments caused dominant effects in glucose utilization (1.5 fold increase vs Dox at 24 hrs) and lactate production. Such high lactate production is one of the main reasons behind the modest in vitro protective ability of AP39 against Dox (FIG. 5), which is in contrast to the in vivo scenario (FIGS. 3 and 4). Thus, metabolomics and transcriptomic approaches led to better understanding of the protective function of AP39.

hiPSC-CMs = assay: DIC in hiPSC-CMs (Annexin V, MitoSox Red); assay type: cell-based, human
[5] = test system: SK-N-BE(2) neuroblastoma cell line; assay: Cell viability (images, MTT) of SK-N-BE(2) neuroblastoma cell line; assay type: cell-based, human
Description: (§2) Methods for cell viability: Cells were plated in 96 wells/6 wells cell culture plates. After 24 hrs of plating, the treatments (added in the growth medium) were conducted. The following assays were performed after 24 hrs of the treatments (day 2). (FIGS. 15A, 17-20, 24-27)
(§3) MTT assay methods. For the MTT assay, […] of 5 mg/ml MTT-tetrazolium salts in PBS was added to each well containing the growth medium. After 3 hours of incubation, the medium was removed and the formazan crystals were dissolved by adding DMSO. The absorption of the formazan solution was measured using a spectrophotometer at a wavelength of 570 nm. FIGS. 15B, 21-22.
The SK-N-BE(2) neuroblastoma cell line was exposed to control, AP39 (AP) at 40 or 60 μM, Doxorubicin at 2.5 or 20 μM, thiolactate at 10 mM, AP39 and Doxorubicin, AP39 and thiolactate, or Doxorubicin and Thiolactate. […] FIGS. 17, 21, 24-25.

A549 lung cancer cells = assay: Cell viability of A549 lung cancer cells; assay type: cell-based
Description: as §2, §3
A549 lung cancer cells were exposed to control, AP39 (AP) at 40 or 60 μM, Doxorubicin at 2.5 or 20 μM, thiolactate at 10 mM, AP39 and Doxorubicin, AP39 and thiolactate, or Doxorubicin and Thiolactate. […] FIGS. 19 and 21.

H1299 lung cancer cells = assay: Cell viability of H1299 lung cancer cells; assay type: cell-based
Description: as §2, §3
H1299 lung cancer cells were exposed to control, AP39 (AP) at 40 or 60 μM, Doxorubicin at 2.5 or 20 μM, thiolactate at 10 mM, AP39 and Doxorubicin, AP39 and thiolactate, or Doxorubicin and Thiolactate. […] FIGS. 20-22.

[6] = AP39 40 or 60 μM, thiolactate 10 mM, 24 hrs
[7] = combination with Doxorubicin 2.5 μM

## O=C(CCCCCCCCC[P+](c1ccccc1)(c1ccccc1)c1ccccc1)Oc1ccc(-c2cc(=S)ss2)cc1.[Br-] [AP39]
[1]
  PARP and caspase 3 cleavage: significantly reduced PARP and caspase 3 cleavage
  stress signaling (activated ERK1/2 and p38 kinases): reduced stress signaling
H9C2 cells; H9C2, AP39 with Dox
  Dox-mediated mitochondrial fusion: reversed after AP39 treatment
H9C2 cells; H9C2, single agent vs control
  mitochondrial H2S levels (AzMAC): H2S production enhancement
  mitochondrial morphology (fission / fusion): increased mitochondrial fission
AMPK, Opa1
  AMPK activation: potent AMPK activation
  Opa1 isoforms (Opa1-S, Opa1-L): elevated amounts of the short form of Opa1 (Opa1-S) at the expense of long form (Opa1-L)
[2]
  Oxygen Consumption Rate (OCR): suppressed OCR
[3]; 16 hrs and 24 hrs
  Serine and glycine 13C labeling: suppressed
[3]; AP39 with Dox
  accumulation of TCA metabolites during Dox treatment: attenuated accumulation of TCA metabolites
  amino acid accumulations during Dox treatment: not effective in preventing many amino acid accumulations
[3]; AP39 with or without Dox, 16 hrs and 24 hrs
  13C labeling of TCA cycle metabolites (citrate, malate, alpha-ketoglutarate, fumarate): highly labeled
[4]; compared to control
  glutamine utilization (supernatants): suppressed glutamine utilization
[4]; supernatants
  lactate production: potent inducer of lactate production
[4]; supernatants, at 24 hrs
  glucose utilization: 1.5 fold increase vs Dox
hiPSC-CMs; 4 μM AP39 with 7.5 μM Dox, 48 hrs
  DIC in hiPSC-CMs: attenuated DIC
hiPSC-CMs; 40 μM AP39, compared with H9C2 cells
  tolerance of hiPSC-CMs to AP39: greater susceptibility
hiPSC-CMs; hiPSC-CMs, AP39 with Dox
  level of apoptosis (Annexin V) and mitochondrial ROS (MitoSox Red): attenuated with AP39 treatment
[5]; [6]
  cell killing, agent alone: able to kill SK-N-BE(2) cells
[5]; [7]
  potency of low doses of Doxorubicin: able to increase the potency of low doses of Doxorubicin
[5]; vs original IC70
  reduction of Dox IC value by AP39: ~8 fold
A549 lung cancer cells; [6]
  cell killing, agent alone: able to kill lung cancer cells
A549 lung cancer cells; [7]
  potency of low doses of Doxorubicin: able to increase the potency of low doses of Doxorubicin
H1299 lung cancer cells; [6]
  cell killing, agent alone: able to kill lung cancer cells
H1299 lung cancer cells; [7]
  potency of low doses of Doxorubicin: able to increase the potency of low doses of Doxorubicin
